The source of these data is ChEMBL document CHEMBL1201862, “PubChem BioAssay data set” (2004).

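48-hour exposure; five concentrations; linearly interpolated endpoints. Here, GI50 denotes the concentration required for 50% inhibition of growth.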 Active and inactive are the calls of the source. No stated cut-off is given here; in the data, active = GI50 up to about 1.1 µM and inactive = higher.

Experiment in all cases: NCI anticancer screen, dose series, 48 h
Test [1] has as its system HCT-15.
For test [2], the system named is IGROV-1.
For test [3], the system named is TK-10.
The test system of test [4] is OVCAR-3.
Test [5] concerns OVCAR-8.
Test [6] has as its system Malme-3M.
Test [7] deals with MDA-N.
Test [8] deals with LOX IMVI.
Test [9] deals with U-251.
Test [10] deals with NCI-H226.
Test [11] has as its system SN12C.
Test [12] concerns MOLT-4.
Test [13] concerns RPMI-8226.
For test [14], the system named is HCC 2998.
Test [15] deals with SNB-19.
In test [16] the test system is NCI/ADR-RES.
Test [17] has as its system CCRF-CEM.
Test [18] relates to K562.
Test [19] relates to HT-29.
The test system of test [20] is SR.

`C=C1C(=O)O[C@@H]2C[C@@H]3[C@]4(CC[C@]5(C)[C@@H]([C@H](C)CC/C=C(\C)C=O)CC[C@@]35C)C[C@]4(CCC(=O)OC)[C@H]12`: the GI50 in test [1] was 1780 nM; in test [2], 2130 nM (inactive); in [3], 2460 nM (inactive); in test [4], 1620 nM (inactive); in test [5], 1120 nM (active); in test [6], 1590 nM (inactive). Moreover, the GI50 in [7] is 1610 nM (inactive); in test [8] it was 1280 nM (inactive); in test [9] it was 1380 nM (inactive); in [10] it was 3400 nM (inactive); in test [11] it was 1900 nM (inactive); in [12], 979 nM (active). Besides, the GI50 in test [13] is 295 nM (active); in test [14], 2140 nM (inactive); in [15], 1970 nM (inactive); in test [16] it was 2350 nM (inactive); in [17], 222 nM (active); in test [18] it was 845 nM (active). Further, the GI50 in [19] is 4390 nM (inactive); in [20], 993 nM (active).
